Laboratory results published in US20250058024A1, “INJECTABLE TOUGH AND VISCOELASTIC BTA HYDROGEL” (UNIVERSITEIT MAASTRICHT, priority 2021, published 2025).

Experiments:
[1] = cited from earlier work
[2] = Storage and handling stability of activated ester synthons; assay type: physicochemical; details: for stability on handling in the lab: open handling in the lab, humid environment, 1H NMR
Excerpt: With the knowledge of proton chemical shift and peak splitting pattern of products, we were able to analyse the crude reaction mixtures and quickly determine the relative amount of the products in the reaction mixture. Molecule 1 produced a 57% yield of 5 (monosubstituted) when treated with 1.0 equiv nucleophile. The desymmetrization of 2 behaved similarly, and after separation and characterization the crude reaction mixture produced a 38% yield of 6 (monosubstituted derivative). […] When the same reaction was run for two equivalents of hexylamine, 1 produced 7 (disubstituted) in 48% yield and 2 produced 8 in 54% yield. […] With promising results, we then turned to desymmetrization of the penta-fluorophenol synthon, 3. […] After ^1H NMR analysis, we were able to determine the ratio of substituted derivatives in the crude reaction mixture (a similar pattern of doublet/triplets and singlets was observed as in the desymmetrization of 1). […] Both desymmetrization reactions yielded higher than statisctical yields and the products were able to be readily isolated via column chromatography. When developing a reactive synthon for desymmetrization, stability and scalability are also important factors to consider. […] Purification of 1 and 2 required a large volume of solvents owing to limited solubility (100s of mL for 10s of mg), while 3 offered a short one-step work up with good solubility.
Due to its ease of synthesis, stability, desymmetrization, and purification, 3 was determined to be the best candidate to work with moving forward. […] Furthermore, the stability of the F5Ph esters on 3 also offers easy separation of desymmetrized intermediates using flash column chromatography.
In order to test the applicability of the reaction methodology to different amine based neuclopehiles/side-arms, we attempted a few different amines. […] (Scheme 3).

[3] = under an inert (and dry) atmosphere

SMILES | pka [1] | stability on handling in the lab [2] | stability on storage [2, 3] | other results
Oc1c(F)c(F)c(F)c(F)c1F [2,3,4,5,6-pentafluorophenol] | 5.4 |  |  | 
O=[N+]([O-])c1cccc(O)c1 [3-nitrophenol] | 8.36 |  |  | 
O=C1CCC(=O)N1O [N-hydroxy succinimide] | 6.0 |  |  | 
O=C(Oc1cccc([N+](=O)[O-])c1)c1cc(C(=O)Oc2cccc([N+](=O)[O-])c2)cc(C(=O)Oc2cccc([N+](=O)[O-])c2)c1 [compound 1] |  | started to hydrolyze |  | stability on storage ([2]; in a desiccator): stable in a desiccator when stored for a year
O=C(Oc1ccc([N+](=O)[O-])cc1)c1cc(C(=O)Oc2ccc([N+](=O)[O-])cc2)cc(C(=O)Oc2ccc([N+](=O)[O-])cc2)c1 [compound 2] |  | started to hydrolyze |  | stability on storage ([2]; in a desiccator): stable in a desiccator when stored for a year
O=C(Oc1c(F)c(F)c(F)c(F)c1F)c1cc(C(=O)Oc2c(F)c(F)c(F)c(F)c2F)cc(C(=O)Oc2c(F)c(F)c(F)c(F)c2F)c1 [compound 3, 1,3,5-benzenetricarbonylpentafluoroester] |  | stable for more than two years | stable over years | 
CCCCCCNC(=O)c1cc(C(=O)Oc2c(F)c(F)c(F)c(F)c2F)cc(C(=O)Oc2c(F)c(F)c(F)c(F)c2F)c1 [compound 9] |  |  | stable over months | 
CCCCCCNC(=O)c1cc(C(=O)NCCCCCC)cc(C(=O)Oc2c(F)c(F)c(F)c(F)c2F)c1 [compound 10] |  |  | stable over months | 
